# pIC50: −log10 of the molar value. Where two headings read alike, the source gives them in different places.
# Tests used:
# [1] = molecular target: IGF-1R (Homo sapiens, UniProt P08069); assay: Tyrosine phosphorylation of IGF-1R in intact FM55 melanoma cells; format: cell-based; set-up: endogenous in cells; settings: for Level of IGF-1R phosphorylation in intact cells: FM55 melanoma cells, 1 h, means of 3 experiments
# Method: Cells were cultured to subconfluency in 6-cm plates, and then fresh medium containing 10% FBS and the desired compounds were added for 1 h. The cells were then lyzed and subjected to immunoprecipitation using specific antibodies. Immunoprecipitates were resolved by sodium dodecyl sulphate polyacrylamide gel electrophoresis (SDS-PAGE) and transferred to nitro-cellulose membranes and incubated with anti-phosphotyrosine antibody. Antibodies to actin (in cell extract) or IGF-1R beta subunit were used as loading controls. After detection the films were scanned for quantification.
# The isolated cells were then lyzed in 10 ml ice-cold PBSTDS containing protease inhibitors (Carlberg, M., et al., J Biol Chem 271:17453-17462, 1996). 50 μl protein A or G agarose was added in 1 ml sample and incubated for 15 min at 4° C. on an orbital shaker. After centrifugation for 10 min at 10,000 r/min at 4° C. the supernatant was saved. The protein content was determined by a dye-binding assay with a reagent purchased from Bio-Rad. Bovine serum albumin was used as a standard. 15 μl Protein G Plus agarose and 5 μl anti-IGF-1R were added. After a 3 h incubation at 4° C. on an orbital shaker the precipitate was collected by pulse centrifugation in a micro centrifuge at 14,000×g for 10 s. The supernatant was discarded and the pellet was washed 3 times with PBSTDS.
# Protein samples were solved in a 2×-sample buffer containing Laemmli buffer and 0.5% […] and boiled for 5 min at 96° C. Samples were separated by SDS-PAGE with a 4% stacking gel and 7.5% separation gel. Molecular weight markers (Bio Rad, Sweden) were run simultaneously in all experiments.
# Following SDS-PAGE the proteins were transferred overnight to nitro-cellulose membranes (Hybond, Amersham, UK) and then blocked for 1 h at room temperature in a solution of 4% skimmed milk powder and 0.02% Tween 20 in PBS, pH 7.5. Incubations with the primary antibodies were performed for 1 h at room temperature, followed by 3 washes with PBS with Tween and incubation with the second antibody for 1 h room temperature. After another 3 washes the membranes were incubated with Streptavidin-labelled horseradish peroxidase for 30 min and then detected using Amersham ECL system (Amersham, UK). The films were scanned by Fluor-S (BioRad).
# FM55 melanoma cells were seeded in 6-cm dishes, at a concentration of 10,000 cells/cm^2 in Minimal Essential Medium supplemented with 10% fetal calf serum (FCS). When the cells reached a density of 65,000 cells/cm^2 in the dishes, they were treated for 1 h with 0.05 μM podophyllotoxin, deoxypodophyllotoxin, picropodophyllin, deoxypicropodophyllin, 4′-demethyl-7-(4,6-O-ethylidene-β-D-glucopyranosyl)epipodophyllotoxin (etoposide) and podophyllotoxin-4,6-O-benzylidene-β-D-glucopyranoside (pf-4,6-O). Etoposide and pf-4,6-O were also administered at 15 μM. The cells were then harvested for assay and quantification of IGF-1R phosphorylation as described in Experiment 1. The values shown in Table 1 represent means of 3 experiments.
# FM55 melanoma cells were cultured in the same way as described in Experiment 1. When reaching a density of 65,000 cells/cm^2 in the dishes, they were treated for 1 h with 0 (control) and 0.05 μM of picropodophyllin and podophyllotoxin, respectively. The cells were then isolated and subjected to immunoprecipitation of the IGF-1R, fibroblast growth factor receptor (FGFR), platelet-derived growth factor receptor (PDGFR), epidermal growth factor receptor (EGFR), insulin receptor (IR) and insulin substrate-1 (IRS-1) using antibodies to respective molecules. IRS-1 is a substrate of IGF-1R, and therefore its phosphorylation is dependent on phosphorylated IGF-1R. Gelelectrophoresis, Western blotting and quantification of the different signals were performed as described above.
# [2] = test system: K562/Vcr30 chronic myeloid leukemia cells; assay: Leukemia cell viability, K562/Vcr30; format: cell-based, human; settings: K562/Vcr30, 72 h
# Method: (§1) The human chronic myeloid leukemia K562/S and K562/Vcr30 lines and the acute myeloid leukemia cell lines HL60/0 and HL60/Nov were obtained from ATCC. The K562/S and […] are wild type (non-resistant) cells, whereas K562/Vcr30 and HL60/Nov are cytostatic-resistant sublines. All leukemia cell lines were cultured in RPMI 1640 medium supplemented with 10% fetal bovine serum and with 2 mM L-glutamine, benzylpenicillin (100 U/ml) and streptomycin (100 μg/ml). The cells were grown in tissue culture flasks maintained at 95% air/5% CO2 atmosphere at 37° C. in a humidified incubator. For the experiments cells were cultured in 60-mm plastic dishes or 96-well plastic plates.
# (§2) Cell proliferation kit II (Roche Inc.) is based on colorimetric change of the yellow tetrazolium salt XTT in orange formazan dye by the respiratory chain of viable cells (Roehm, N W, et al., J Immunol Methods 142:257-265, 1991). Cells seeded at a concentration of 5000/well in 100 μl medium in a 96-well plate were treated with different drugs in the given concentration. After 24 or 48 h the cells were incubated, according to the manufacturer's protocol, with XTT labelling mixture. After 4 h the formazan dye is quantified using a scanning multiwell spectrophotometer with a 495-nm filter. The absorbance is directly correlated with the number of viable cells. The standard absorbance curve was drawn by means of untreated cells seeded at a concentration of from 1000 to 10 000 cells/well with an increasing rate of 1000 cells/well. All standards and experiments were performed in triplicates.
# (§3) Cells of said cell lines were seeded in 96-well plates (25 000 cells/well, medium volume per well was 100 μl), in […] medium supplemented with fetal calf serum. After 24 h picropodophyllin and the derivatives alpha-apopicropodophyllin and beta-apopicropodo-phyllin were added at different concentrations and the cells were incubated for 72 h. Cell viability was then assayed (see above). […] The results are based on 3 different experiments.
# (§4) The leukemia cell lines K562/S, […], HL60/0 and HL60/Nov were cultured in 96-well plates as described in Experiment 7. After 24 h, the cells were treated for 72 h with different concentrations of the anti-cancer agent vincristine, with and without co-incubation with 0.05 μM picropodophyllin. […] Cell viability was then assayed. IC50 values for each inhibitor and cell line are shown below (Table 8). The results are based on 3 different experiments.
# [3] = test system: HL60/0 acute myeloid leukemia cells; assay: Leukemia cell viability, HL60/0; format: cell-based, human
# Method: as §1, §2, §3, §4
# [4] = test system: HL60/Nov acute myeloid leukemia cells; assay: Leukemia cell viability, HL60/Nov; format: cell-based, human
# Method: as §1, §2, §3, §4
# [5] = test system: K562/S chronic myeloid leukemia cells; assay: Leukemia cell viability, K562/S; format: cell-based, human; settings: 72 h
# Method: as §1, §2, §3, §4
# [6] = Systemic toxicity, daily intraperitoneal injection in nude mice; settings: for Signs of disease: up to 5 days
# Method: Four to five-week old pathogen-free nude mice (nu/nu) were used and housed within plastic isolators in a sterile facility. […] Experimental treatments with podophyllotoxin, deoxypodophyllotoxin or picropodophyllin were performed by daily intraperitoneal injections of the compound in 100 μl volume of solvent, composed of a mixture of DMSO and physiological saline (8:2). Control mice were treated with the solvent. 3-6 animals were treated in each group. Animals were monitored three times a week for signs of disease and tumor growth. Tumor mass was estimated using the formula (d^2×D)/2, where d and D represent the small and large diameters of the tumor, respectively. The mice were carefully observed for presence of side effects and were sacrificed at the end of the experiments for histological analysis of the lesions. All experiments were performed according to the ethical guidelines for laboratory animal use, provided by institutional ethical committee.
# In the next experiment we analyzed systemic effects of the drugs by injecting 100 μl intraperitoneally of each compound daily over 5 days. Two doses were injected (7 or 28 mg/kg/d) and 3-6 mice were used for each drug and dose. The mice were checked carefully daily for signs of discomfort, diseases and weight loss.
# [7] = Local toxicity, subcutaneous osmotic pumps in nude mice; format: in vivo; settings: subcutaneous osmotic pump loaded with 0.25 mg, 7 days
# Method: Control mice were treated with the solvent. 3-6 animals were treated in each group.
# The first set of experiments was carried out to investigate possible local and systemic toxic effects of podophyllotoxin, deoxypodophyllotoxin and picropodophyllin on nude mice. In the first experiment osmotic pumps loaded with either drug-free solvent, podophyllotoxin (0.25 mg), deoxypodophyllotoxin (0.25 mg) or picropodophyllin (0.25 mg) were implanted subcutaneously in the flank region. The drugs are delivered subcutaneously with a constant flow of 0.6 μl/h over 7 days. The volume of the pumps was 100 μl. After 7 days the mice were killed and the skin and subcutaneous tissue adjacent to the outlet of the pumps were analyzed and scored for tissue reactions by an experienced pathologist. There were 3 mice in each group.
# [8] = read-out: IC50 for cell viability
# [9] = HL60, 72 h, read-out: IC50 for cell viability
# [10] = 72 h, read-out: IC50 for cell viability
# [11] = Homo sapiens, read-out: IC50 for cell viability, vincristine alone
# IGF-1R, sequence (P08069 31-1367): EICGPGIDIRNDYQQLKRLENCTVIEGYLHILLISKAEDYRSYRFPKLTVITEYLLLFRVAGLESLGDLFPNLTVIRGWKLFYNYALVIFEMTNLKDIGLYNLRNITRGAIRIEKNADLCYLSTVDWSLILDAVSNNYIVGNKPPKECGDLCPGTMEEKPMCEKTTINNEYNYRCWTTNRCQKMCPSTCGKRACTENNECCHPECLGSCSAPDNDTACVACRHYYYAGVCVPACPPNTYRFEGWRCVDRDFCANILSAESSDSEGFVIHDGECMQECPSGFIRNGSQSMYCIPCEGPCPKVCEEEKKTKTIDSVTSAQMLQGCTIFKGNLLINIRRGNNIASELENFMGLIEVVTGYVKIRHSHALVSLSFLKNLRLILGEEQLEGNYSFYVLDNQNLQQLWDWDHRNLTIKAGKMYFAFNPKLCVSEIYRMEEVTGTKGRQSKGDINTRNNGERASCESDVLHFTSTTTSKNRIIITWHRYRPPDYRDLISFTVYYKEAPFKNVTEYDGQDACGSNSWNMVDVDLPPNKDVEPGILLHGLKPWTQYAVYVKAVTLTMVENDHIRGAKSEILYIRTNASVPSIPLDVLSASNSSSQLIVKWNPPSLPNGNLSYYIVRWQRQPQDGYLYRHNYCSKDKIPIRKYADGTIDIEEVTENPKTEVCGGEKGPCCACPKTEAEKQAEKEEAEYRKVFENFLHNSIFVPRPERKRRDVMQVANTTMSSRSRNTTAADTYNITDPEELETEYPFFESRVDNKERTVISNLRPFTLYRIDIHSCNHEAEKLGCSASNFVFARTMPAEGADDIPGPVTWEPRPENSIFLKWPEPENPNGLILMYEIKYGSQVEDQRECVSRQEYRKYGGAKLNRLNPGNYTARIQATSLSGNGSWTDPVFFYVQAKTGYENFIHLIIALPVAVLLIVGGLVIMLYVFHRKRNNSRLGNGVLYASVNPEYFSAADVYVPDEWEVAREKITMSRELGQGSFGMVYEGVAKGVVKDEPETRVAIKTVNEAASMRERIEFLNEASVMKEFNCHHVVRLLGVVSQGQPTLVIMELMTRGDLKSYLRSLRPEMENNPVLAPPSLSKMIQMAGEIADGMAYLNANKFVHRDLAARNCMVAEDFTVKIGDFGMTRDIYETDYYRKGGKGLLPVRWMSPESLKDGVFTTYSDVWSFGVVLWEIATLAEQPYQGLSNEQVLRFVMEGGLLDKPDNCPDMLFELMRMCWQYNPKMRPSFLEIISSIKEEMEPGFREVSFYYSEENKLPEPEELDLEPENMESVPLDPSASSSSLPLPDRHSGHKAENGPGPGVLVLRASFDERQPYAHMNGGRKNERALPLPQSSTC
compound,measurement,setting,value
"COc1cc([C@@H]2c3cc4c(cc3C[C@H]3COC(=O)[C@H]32)OCO4)cc(OC)c1OC [Deoxypicropodophyllin, deoxypicropodophyllin]",Level of IGF-1R phosphorylation in intact cells,[1]; 0.05 μM,5 % OD
"COc1cc([C@@H]2c3cc4c(cc3C=C3COC(=O)[C@H]32)OCO4)cc(OC)c1OC [Alpha-apopicro, α-apopicropodophyllin]",pIC50,[2]; [8],7.30
same,pIC50,[3]; [9],7.70
same,pIC50,[4]; [10],7.70
same,pIC50,[5]; [8],7.40
"COc1cc([C@@H]2c3cc4c(cc3C[C@H]3COC(=O)[C@@H]32)OCO4)cc(OC)c1OC [Deoxypodophyllotoxin, deoxypodophyllotoxin]",Level of IGF-1R phosphorylation in intact cells,[1]; 0.05 μM,2 % OD
same,Surviving mice/Investigated mice,"[6]; 7 mg/kg/d i.p., 1 d",3/3
same,Surviving mice/Investigated mice,"[6]; 7 mg/kg/d i.p., 2 d",3/3
same,Surviving mice/Investigated mice,"[6]; 7 mg/kg/d i.p., 3 d",3/3
same,Surviving mice/Investigated mice,"[6]; 7 mg/kg/d i.p., 4 d",3/3
same,Surviving mice/Investigated mice,"[6]; 7 mg/kg/d i.p., 5 d",3/3
same,Surviving mice/Investigated mice,"[6]; 28 mg/kg/d i.p., 1 d",6/6
same,Surviving mice/Investigated mice,"[6]; 28 mg/kg/d i.p., 2 d",4/6
same,Surviving mice/Investigated mice,"[6]; 28 mg/kg/d i.p., 3 d",0/6
same,Signs of disease,[6]; high dose (28 mg/kg/d) i.p. daily,serious disease or death
same,Signs of disease,[6]; low dose (7 mg/kg/d) i.p. daily,serious signs of disease
same,Local tissue reactions,[7],light damages
"COc1cc(C2c3cc4c(cc3C(OC3OC5COC(c6ccccc6)OC5C(O)C3O)C3COC(=O)C23)OCO4)cc(OC)c1OC [Pf-4,6-O, podophyllotoxin-4,6-O-benzylidene-β-D-glucopyranoside]",Level of IGF-1R phosphorylation in intact cells,[1]; 0.05 μM,100 % OD
same,Level of IGF-1R phosphorylation in intact cells,[1]; 15 μM,102 % OD
same,Effect on IGF-1R,[1]; stated in description,completely disappeared
"CC[C@]1(O)C[C@H]2CN(CCc3c([nH]c4ccccc34)[C@@](C(=O)OC)(c3cc4c(cc3OC)N(C=O)[C@H]3[C@@](O)(C(=O)OC)[C@H](OC(C)=O)[C@]5(CC)C=CCN6CC[C@]43[C@@H]65)C2)C1 [Vincristine, vincristine, reference compound]",pIC50,[2]; [11],8.30
same,pIC50,"[3]; Homo sapiens, HL-60, HL60/0, 72 h, read-out: IC50 for cell viability, vincristine alone",9.10
same,pIC50,"[4]; Homo sapiens, HL-60, 72 h, read-out: IC50 for cell viability, vincristine alone",8.92
same,pIC50,[5]; [11],8.80
"COc1cc([C@@H]2c3cc4c(cc3[C@@H](O[C@@H]3O[C@@H]5CO[C@@H](C)O[C@H]5[C@H](O)[C@H]3O)[C@H]3COC(=O)[C@H]23)OCO4)cc(OC)c1O [Etoposide, 4′-demethyl-7-(4,6-O-ethylidene-β-D-glucopyranosyl)epipodophyllotoxin]",Level of IGF-1R phosphorylation in intact cells,[1]; 0.05 μM,102 % OD
same,Level of IGF-1R phosphorylation in intact cells,[1]; 15 μM,105 % OD
β-apopicropodophyllin [Beta-apopicro],pIC50,[2]; [8],8.00
same,pIC50,[3]; [9],8.00
same,pIC50,[4]; [10],8.00
same,pIC50,[5]; [8],8.00

# Reference: patent US7662851B2, “Use of specific cyklolignans” (Axelar AB, priority 2001, dated 2010)
